Measured values taken from US10568992B2, “Peptides for supporting endothelial progenitor cell rolling and capture and endothelialization of biomaterials” (Auburn University, priority 2015, dated 2020).
Bridges are numbered along the chain shown (N, C = ends). Where no end group is shown, it is not given here.

Columns and labels:
[1] = tested on: endothelial colony forming cells (ECFCs); experiment: ECFC rolling on peptide-grafted PEG hydrogels under shear (parallel plate flow chamber); assay type: cell-based; parameters: ECFC rolling velocity: unit not given here; details: for ECFC rolling velocity: 0.7 μmol/mL PEG-peptide grafted hydrogel; for ECFC rolling velocity / ECFC rolling velocities / rolling velocities of ECFCs: mean±SD (n=3); for ECFC rolling velocities: FIG. 15A; for support of ECFC rolling (velocity below rolling cutoff, 40% of average fluid velocity): shear rates 20-120 s^−1; for rolling velocities of ECFCs: FIG. 13A
Procedure: (§1) Umbilical cord blood ECFCs were used in this study. To create the peptide-grafted PEG surfaces, PEG-DA was first photopolymerized to form a hydrogel base. Peptides were conjugated to acryloyl-PEG-SVA to produced the PEG-peptides, and 0.7 μmol/mL of each PEG-peptide was grafted onto the surface of the PEG hydrogel base. Shear experiments were performed to examine ECFC rolling and adhesion on the hydrogel surfaces. Using a Glycotech parallel plate flow chamber, the ECFC cell suspension was sheared over the hydrogels at shear rates of 20 s^−1, 40 s^−1, 80 s^−1, and 120 s^−1. Cell rolling events were recorded at 70 fps using a high speed camera. Cell tracking was performed using ImageJ and Matlab to determine rolling velocities. Finally ECFC retention on the RGDSQ ID NO:3)-grafted PEG hydrogels was quantified under superphysiological shear stress.
To form the PEG-peptide grafting solution, the acryloyl-PEG-peptide was first dissolved in sterile PBS at the desired concentration (ranging from 0.7 mM to 5.6 mM) and the photoinitiator was added as described above. After each PEGDA hydrogel was photocrosslinked, the top plate of the mold was removed. The hydrogels were rinsed with sterile PBS and briefly dried with a stream of nitrogen to remove excess PBS on the surface of the hydrogel. The mold's 0.5 mm PDMS spacers were replaced with 0.7 mm PDMS spacers and a clean glass slide was placed on top. Then the PEG-peptide grafting solution was injected between the hydrogel and the new piece of glass and photocrosslinked to the top of the PEGDA hydrogel under the UV lamp for 7 min. PEG-peptide grafted hydrogels were then rinsed and swollen in sterile PBS for experiments.
To identify whether a cell is rolling, the upper velocity cutoff was determined by flowing ECFCs across the surface of control PEG hydrogels at different shear rates. Using video recordings, ECFC rotation on the focal plane of PEG hydrogels was observed. […] Therefore, based on these experiments, 40% of average fluid flow velocity was used as the cutoff velocity for cell rolling as is shown in FIG. 12.

[2] = tested on: endothelial colony forming cells (ECFCs); experiment: ECFC capture on peptide-grafted PEG hydrogels under shear; assay type: cell-based; details: 20 s^−1; for ECFCs captured (captured cells normalized to total cells interacting with hydrogel surface): 2 min recordings, total 0.7 μmol/mL peptide grafted (combinations 0.35/0.35 μmol/mL), mean±SD (n=3); for ECFC capture events (in words): low shear rate
Procedure: as §1
Cell capture events were consistently observed on CRRETAWAC (SEQ ID NO:1)- and PRb (SEQ ID NO:18)-grafted hydrogels at 20 s^−1. Number of captured cells were counted and normalized to the total number of cells interacted with each hydrogel surface. During each of the 2 min recordings, 3.74%±1.0% of ECFCs were captured on CRRETAWAC (SEQ ID NO:1)-grafted hydrogels and 1.14%±0.2% of ECFCs were captured on PRb-grafted hydrogels FIG. 9. Since both of these novel peptides are specific for the integrin α5β1, the result of this study strongly supports that α5β1 is responsible for cell capture.
To further evaluate the potential use of CRRETAWAC (SEQ ID NO:1) and PRb in the ECFC capture for endothelialization, ECFC rolling on hydrogels that were grafted with combinations of CRRETAWAC (SEQ ID NO:1) or PRb (SEQ ID NO:18) with REDV (SEQ ID NO:2) was assessed. In order to maintain consistent grafting of peptides, a final concentrations of 0.7 μmol/mL of equal molar mixtures of acryloyl-PEG-peptides precursors were grafted onto the surface of PEG hydrogels.

[3] = tested on: endothelial colony forming cells (ECFCs); experiment: Adhesion of ECFCs on peptide-grafted PEG hydrogels (static); assay type: cell-based; details: for ECFC adhesion and spreading: after 24 hours; for ECFC monolayer formation and cobble stone morphology: peptide-grafted hydrogels
Source text: ECFC adhesion on (A) CRRETAWAC (SEQ ID NO:1)-(B) PRb ([…]), —(C) P11 (SEQ ID NO: 11)-grafted PEG hydrogels.
Adhesion of ECFCs on CRRETAWAC (SEQ ID NO:1)-, PRb (SEQ ID NO:18)-, P11 (SEQ ID NO: 11)-grafted hydrogels was first accessed. […] On P11-grafted hydrogels, ECFCs aggregated to form adherent cell clumps. […] Without the ability to support cell spreading and the formation of monolayer, P11 alone could not support ECFC endothelialization which is critical for healing damaged and diseased blood vessels.

integrin α5β1 = integrin α5β1 (Homo sapiens, UniProt P05556+P08648); details: among the non-RGD containing peptides of the library; cited from earlier work
αvβ3 integrin = αvβ3 integrin (Homo sapiens, UniProt P05106+P06756); details: among 12 HXXXHK hexapeptides; cited from earlier work
Sequence of αvβ3 integrin (P06756 31-889 limits assumed): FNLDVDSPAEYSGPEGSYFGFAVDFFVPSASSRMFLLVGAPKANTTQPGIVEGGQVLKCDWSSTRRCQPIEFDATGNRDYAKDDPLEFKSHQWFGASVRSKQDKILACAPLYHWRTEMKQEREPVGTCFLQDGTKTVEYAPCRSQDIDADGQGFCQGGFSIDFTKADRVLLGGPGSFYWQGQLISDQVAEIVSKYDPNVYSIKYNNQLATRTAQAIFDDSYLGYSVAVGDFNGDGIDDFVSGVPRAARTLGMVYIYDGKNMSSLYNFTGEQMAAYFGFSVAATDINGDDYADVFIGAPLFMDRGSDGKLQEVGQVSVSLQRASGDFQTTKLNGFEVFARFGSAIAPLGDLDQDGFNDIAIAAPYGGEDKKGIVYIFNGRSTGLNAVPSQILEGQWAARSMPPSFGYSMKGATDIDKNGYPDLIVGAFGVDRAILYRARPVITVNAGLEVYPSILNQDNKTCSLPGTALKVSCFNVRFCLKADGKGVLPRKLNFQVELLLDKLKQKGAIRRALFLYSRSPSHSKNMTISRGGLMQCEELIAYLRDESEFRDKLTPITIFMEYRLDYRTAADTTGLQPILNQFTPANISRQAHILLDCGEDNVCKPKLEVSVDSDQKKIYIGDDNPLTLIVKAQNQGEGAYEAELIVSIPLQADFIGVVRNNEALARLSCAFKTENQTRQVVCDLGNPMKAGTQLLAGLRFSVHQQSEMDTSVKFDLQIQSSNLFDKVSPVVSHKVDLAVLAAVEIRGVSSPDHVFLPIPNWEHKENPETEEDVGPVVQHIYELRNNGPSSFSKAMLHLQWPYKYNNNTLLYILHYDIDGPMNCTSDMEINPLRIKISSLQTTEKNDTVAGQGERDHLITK
Sequence of αvβ3 integrin (P06756 891-1048 partner limits assumed): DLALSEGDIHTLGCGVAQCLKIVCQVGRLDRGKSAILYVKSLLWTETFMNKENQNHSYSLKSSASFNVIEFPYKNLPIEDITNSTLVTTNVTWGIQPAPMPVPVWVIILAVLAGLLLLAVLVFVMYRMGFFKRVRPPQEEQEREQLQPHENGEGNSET
Sequence of αvβ3 integrin (P05106 27-788): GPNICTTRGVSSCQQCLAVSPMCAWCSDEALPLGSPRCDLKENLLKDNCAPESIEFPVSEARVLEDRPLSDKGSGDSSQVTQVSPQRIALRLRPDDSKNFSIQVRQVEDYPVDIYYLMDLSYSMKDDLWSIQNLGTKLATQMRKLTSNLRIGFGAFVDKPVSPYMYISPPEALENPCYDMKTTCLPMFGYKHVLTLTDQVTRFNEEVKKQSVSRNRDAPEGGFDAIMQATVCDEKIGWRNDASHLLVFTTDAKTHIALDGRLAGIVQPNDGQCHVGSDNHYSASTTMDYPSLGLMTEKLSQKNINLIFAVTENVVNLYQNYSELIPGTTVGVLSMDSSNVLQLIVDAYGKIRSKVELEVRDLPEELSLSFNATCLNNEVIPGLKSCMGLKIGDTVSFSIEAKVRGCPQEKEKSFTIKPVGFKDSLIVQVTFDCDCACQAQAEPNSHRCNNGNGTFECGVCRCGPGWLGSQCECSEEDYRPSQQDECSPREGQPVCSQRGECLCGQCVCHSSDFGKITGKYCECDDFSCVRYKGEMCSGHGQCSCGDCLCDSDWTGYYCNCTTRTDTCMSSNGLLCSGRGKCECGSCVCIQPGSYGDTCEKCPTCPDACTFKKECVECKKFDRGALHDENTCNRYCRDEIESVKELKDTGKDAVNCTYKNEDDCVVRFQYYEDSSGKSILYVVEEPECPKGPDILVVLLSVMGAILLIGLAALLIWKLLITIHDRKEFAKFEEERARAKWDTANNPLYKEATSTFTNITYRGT

Sequence of integrin α5β1 (P08648 42-894 limits assumed): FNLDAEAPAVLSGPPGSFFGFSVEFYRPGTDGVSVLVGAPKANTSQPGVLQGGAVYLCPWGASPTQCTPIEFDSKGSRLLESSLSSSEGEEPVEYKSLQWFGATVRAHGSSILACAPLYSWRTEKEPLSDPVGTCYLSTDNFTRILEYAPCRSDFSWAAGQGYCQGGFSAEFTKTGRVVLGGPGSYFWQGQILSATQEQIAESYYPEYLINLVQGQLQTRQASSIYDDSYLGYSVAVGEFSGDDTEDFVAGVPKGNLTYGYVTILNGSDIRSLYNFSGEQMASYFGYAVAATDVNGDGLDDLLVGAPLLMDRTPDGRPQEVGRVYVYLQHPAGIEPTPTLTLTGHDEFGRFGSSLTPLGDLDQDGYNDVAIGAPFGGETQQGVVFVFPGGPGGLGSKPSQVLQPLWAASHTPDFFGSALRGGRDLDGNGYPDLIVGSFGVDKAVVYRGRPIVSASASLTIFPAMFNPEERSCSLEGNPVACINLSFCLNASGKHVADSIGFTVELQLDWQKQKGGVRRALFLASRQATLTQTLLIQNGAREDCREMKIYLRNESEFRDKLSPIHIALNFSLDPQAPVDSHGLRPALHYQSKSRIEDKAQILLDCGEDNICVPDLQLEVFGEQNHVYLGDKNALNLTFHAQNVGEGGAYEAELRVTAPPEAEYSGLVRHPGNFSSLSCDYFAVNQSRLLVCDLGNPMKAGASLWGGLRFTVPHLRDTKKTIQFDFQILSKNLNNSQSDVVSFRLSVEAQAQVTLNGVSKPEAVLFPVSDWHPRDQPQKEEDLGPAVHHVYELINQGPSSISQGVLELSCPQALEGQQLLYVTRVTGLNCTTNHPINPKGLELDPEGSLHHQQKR
Sequence of integrin α5β1 (P08648 895-1049 partner limits assumed): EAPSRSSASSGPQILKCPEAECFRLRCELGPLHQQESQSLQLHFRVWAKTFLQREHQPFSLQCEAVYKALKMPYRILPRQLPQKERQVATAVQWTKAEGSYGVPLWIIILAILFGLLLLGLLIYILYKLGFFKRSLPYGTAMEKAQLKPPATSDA
Sequence of integrin α5β1 (P05556 21-798): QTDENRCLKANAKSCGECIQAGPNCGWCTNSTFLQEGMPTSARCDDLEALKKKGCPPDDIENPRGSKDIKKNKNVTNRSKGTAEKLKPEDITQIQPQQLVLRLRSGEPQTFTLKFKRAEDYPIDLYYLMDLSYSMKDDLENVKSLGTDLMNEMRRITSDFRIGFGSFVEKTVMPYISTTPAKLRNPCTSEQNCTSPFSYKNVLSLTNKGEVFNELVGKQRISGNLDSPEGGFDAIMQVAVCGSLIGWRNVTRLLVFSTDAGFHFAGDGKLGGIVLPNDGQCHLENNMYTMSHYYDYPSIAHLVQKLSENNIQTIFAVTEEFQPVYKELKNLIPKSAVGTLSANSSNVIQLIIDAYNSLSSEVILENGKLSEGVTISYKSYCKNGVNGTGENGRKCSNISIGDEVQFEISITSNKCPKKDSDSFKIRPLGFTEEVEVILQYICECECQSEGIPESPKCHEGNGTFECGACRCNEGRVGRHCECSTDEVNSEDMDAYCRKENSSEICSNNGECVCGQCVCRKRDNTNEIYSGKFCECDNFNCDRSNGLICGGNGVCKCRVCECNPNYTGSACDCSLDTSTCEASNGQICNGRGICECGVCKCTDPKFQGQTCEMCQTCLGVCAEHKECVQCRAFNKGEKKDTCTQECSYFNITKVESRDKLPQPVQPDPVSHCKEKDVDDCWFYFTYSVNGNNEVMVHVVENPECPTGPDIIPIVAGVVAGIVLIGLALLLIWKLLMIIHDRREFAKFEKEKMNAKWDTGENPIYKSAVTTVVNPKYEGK

Substance	ECFC rolling velocity ([1]; shear rate 20 1/s)	ECFC rolling velocity ([1]; shear rate 40 1/s)	ECFC rolling velocity ([1]; shear rate 80 1/s)	ECFC rolling velocity ([1]; shear rate 120 1/s)	ECFCs captured (captured cells normalized to total cells interacting with hydrogel surface) [2]	ECFC adhesion and spreading [3]	ECFC monolayer formation and cobble stone morphology [3]	affinity to α5β1 (integrin α5β1)	competition with fluorescently labeled VN for αvβ3 (αvβ3 integrin)	ECFC rolling velocities ([1]; 20 s^−1)	ECFC rolling velocities ([1]; 40 s^−1)	ECFC rolling velocities ([1]; 80 s^−1)	ECFC rolling velocities ([1]; 120 s^−1)	support of ECFC rolling (velocity below rolling cutoff, 40% of average fluid velocity) [1]	ECFC capture events (in words) [2]	rolling velocities of ECFCs ([1]; 20 s^−1)	rolling velocities of ECFCs ([1]; 40 s^−1)	rolling velocities of ECFCs ([1]; 80 s^−1)	rolling velocities of ECFCs ([1]; 120 s^−1)
CRRETAWAC (disulfide 1-9 (inferred); also: grafted on PEG hydrogel via acryloyl-PEG)	131.6	278.4 ± 28.6	550.6 ± 64.1	828.4 ± 82.7	3.74%	supported ECFC adhesion and spreading	able to form monolayer and maintain cobble stone morphology	highest affinity	–	–	–	–	–	–	–	–	–	–	–
HSDVHK [Peptide P11, synthesized as HSDVHKG]	127.5	251.0 ± 41.2	508.0 ± 86.5	787.6 ± 102.1	–	only able to support ECFC adhesion, but not spreading	not	–	most competitive for αvβ3	–	–	–	–	–	–	–	–	–	–
PHSRNSGSGSGSGSGRGDSG [PRb]	110.3	235.0 ± 36.1	485.7 ± 67.5	735.1 ± 102.6	1.14%	supported ECFC adhesion and spreading	able to form monolayer and maintain cobble stone morphology	–	–	–	–	–	–	–	–	–	–	–	–
REDV (also: PEG conjugate)	78.6	183.3 ± 43.4	353.8 ± 82.0	564.3 ± 177.0	–	–	not	–	–	79±4 μm s^−1	181±6 μm s^−1	357±6 μm s^−1	560±15 μm s^−1	supported ECFC rolling	does not support capture even at low shear rates	–	–	–	–
RGDS (also: PEG conjugate) [ubiquitous cell adhesion peptide]	102.2	218.7 ± 42.4	455.8 ± 86.7	739.7 ± 121.9	–	–	able to form monolayer and maintain cobble stone morphology	–	–	–	–	–	–	supported ECFC rolling at all shear rates	Some ECFC capture events were observed	103±3 μm/s	223±14 μm/s	469±38 μm/s	741±28 μm/s
RGES (also: PEG conjugate)	–	–	–	–	–	–	–	–	–	–	–	–	–	did not support ECFC rolling	–	–	–	–	–
YIGSRG (also: PEG conjugate)	103.2	223.2 ± 38.0	487.6 ± 72.5	737.0 ± 107.9	–	–	not	–	–	102±9 μm s^−1	223±22 μm s^−1	484±12 μm s^−1	740±10 μm s^−1	supported ECFC rolling	–	–	–	–	–
